US20250064840A1, “DRUG DELIVERY SYSTEMS BASED ON ENDOPEROXIDES USEFUL IN DIAGNOSIS AND THERAPY, AND METHODS THEREOF” (FACULDADE DE FARMÁCIA DA UNIVERSIDADE DE LISBOA, priority 2021, published 2025)
Where “and” joins values, the source holds several entries; their conditions need not be identical. Identical values can stand only once. Like-named read-outs stand apart in the source and are kept apart here.

Assays:
[1] = system: U251 human glioblastoma; experiment: Antitumoral effect, MTS metabolism assay, U251; type: cell-based; settings: U-251, 72 hours
[2] = system: PC3 human prostate adenocarcinoma; experiment: Antitumoral effect, MTS metabolism assay, PC3; type: cell-based; settings: 72 hours
[3] = system: HCT116 human colorectal carcinoma; experiment: Antitumoral effect, MTS metabolism assay, HCT116; type: cell-based; settings: HCT-116, 72 hours
[4] = system: MCF7 human breast adenocarcinoma; experiment: Antitumoral effect, MTS metabolism assay, MCF7; type: cell-based; settings: 72 hours
[5] = system: AML12 murine immortalized hepatocyte cell line; experiment: Toxicity for non-tumoral cells, MTS assay, AML12; type: cell-based; settings: for IC50: Mus musculus, non-tumorigenic cell line, 72 hours, MTS; for Selectivity (IC50Compound II/IC50 Doxorubicin): ratio to doxorubicin
[6] = Fluorescence quantum yields determination; type: physicochemical; settings: water with 30% DMSO; standard fluorescein in 0.1 M sodium hydroxide
[7] = system: HT-29 cells; settings: 2 mg/kg intravenous, eight injections
[8] = system: Plasmodium falciparum strain 3D7; experiment: Antimalarial activity, whole-cell SYBR Green I assay; type: cell-based; settings: read-out: Antimalarial activity (IC50) Mean
Experimental: Antimalarial activity of compounds IIa and IIb can be accessed by exposing a P. falciparum strain (see Example 5), such as strain 3D7, which is chloroquine and mefloquine sensitive, to said compounds, and by using the SYBR Green I assay as described in Machado et. al, Ann. Clin. Med. Microbio. 2016, 2, 1010. Asynchronous parasites are cultivated for 72 hours in the presence of each compound. Fluorescence intensity was measured with a multi-mode microplate reader (Triad, Dynex Technologies). Compounds IIa and IIb were active against the malaria parasite (see Example 5, Table 1). Compounds were dissolved in RPMI-1640 with L-glutamine (BiowestTM) supplemented with […] (GibcoTM), herein after referred to as RPMIc, to obtain an intermediate solution of 100 μM. Laboratory-adapted P. falciparum strain 3D7, a chloroquine and mefloquine sensitive strain, was continuously cultured as described elsewhere (Machado et. al, Ann. Clin. Med. Microbio. 2016, 2, 1010). Parasites were cultivated in 5% haematocrit, 37° C. and atmosphere with 5% of CO2. […] (GibcoTM) at 0.5% was used as a substitute of human serum in the culture medium. Staging and parasitemia were determined by light microscopy of Giemsa-stained thin blood smears. Anti-malarial activity was determined using the SYBR Green I assay (Machado et. al, Ann. Clin. Med. Microbio. 2016, 2, 1010 and Lobo et. al, […]. 2018, 17, 1). Briefly, asynchronous parasites were cultivated for 72 hours in the presence of a 1:3 serial dilution of each compound.

[9] = chloroquine-sensitive 3D7 strain, asynchronous parasites, 72 hours

Structure (SMILES) | IC50 [1] [nM] | IC50 [2] [nM] | IC50 [3] [nM] | IC50 [4] [nM] | fluorescence quantum yield [6] [%] | IC50 [8, 9] [nM] | IC50 [5] [nM] | reduction of the tumour mass versus negative control and vehicle control [7] | Selectivity (IC50Compound II/IC50 Doxorubicin) [5] | IC50 ([8]; 3D7, 72 h) [nM]
COc1cccc2c1C(=O)c1c(O)c3c(c(O)c1C2=O)C[C@@](O)(C(=O)CO)C[C@@H]3O[C@H]1C[C@H](N)[C@H](O)[C@H](C)O1 [Doxorubicin, doxorubicin, reference compound] | 11 | 120 | 50 | 170 | 2.8 | – | 170 | higher reduction of the tumour mass | – | –
CCN(CC)CCCC(C)Nc1ccnc2cc(Cl)ccc12 (stereo not shown) [CQ, chloroquine, reference compound] | – | – | – | – | – | – | – | – | – | 19.4
CC(C)(C)OC(=O)N1CCN(C(=O)OC2CCCC3(C2)OOC2(OO3)C3CC4CC(C3)CC2C4)CC1 (stereo not shown) [Compound IIb] | – | – | – | – | – | 11.4 | – | – | – | –

More lines, main results first:

IC50 [1] [nM] | IC50 [2] [nM] | IC50 [3] [nM] | IC50 [4] [nM] | fluorescence quantum yield [6] [%] | IC50 [8, 9] [nM] | Structure (SMILES) | IC50 [5] [nM] | reduction of the tumour mass versus negative control and vehicle control [7] | Selectivity (IC50Compound II/IC50 Doxorubicin) [5] | IC50 ([8]; 3D7, 72 h) [nM]
250 | 1370 | 5110 | 1650 | – | – | COc1cccc2c1C(=O)c1c(O)c3c(c(O)c1C2=O)C[C@](O)(C(=O)CO)C[C@H]3O[C@@H]1CC(NC(=O)OC2CCCC3(C2)OOC2(OO3)C3CC4CC(C3)CC2C4)[C@@H](O)[C@@H](C)O1 (stereo partly shown) [IIc] | 1830 | – | 10 and 10.64 | –
– | – | – | – | – | 32.8 | COc1cc(NC(C)CCCNC(=O)OC2CCCC3(C2)OOC2(OO3)C3CC4CC(C3)CC2C4)c2ncccc2c1 (stereo not shown) [Compound IIa] | – | – | – | –
13200 | 14300 | 3520 | 8450 | – | – | COc1cccc2c1C(=O)c1c(O)c3c(c(O)c1C2=O)C[C@](O)(C(=O)CO)C[C@H]3O[C@@H]1CC(NC(=O)OCC2=CCCCC23OOC2(OO3)C3CC4CC2CC(O)(C4)C3)[C@@H](O)[C@@H](C)O1 (stereo partly shown) [Compound IIe] | 30500 | – | 180 and 179 | –
